In this test the target is T1, Histone deacetylase 11 (Homo sapiens, UniProt Q96DB2).
T1 sequence (Q96DB2 whole entry): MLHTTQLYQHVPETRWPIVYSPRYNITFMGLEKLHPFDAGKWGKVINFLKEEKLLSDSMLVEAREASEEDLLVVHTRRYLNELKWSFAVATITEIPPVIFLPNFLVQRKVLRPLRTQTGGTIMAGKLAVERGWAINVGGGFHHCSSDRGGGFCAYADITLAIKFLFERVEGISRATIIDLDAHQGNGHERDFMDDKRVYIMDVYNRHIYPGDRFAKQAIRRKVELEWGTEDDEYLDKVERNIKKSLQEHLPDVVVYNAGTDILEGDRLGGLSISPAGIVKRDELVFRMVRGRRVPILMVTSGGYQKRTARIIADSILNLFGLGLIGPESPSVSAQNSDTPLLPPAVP
In words: HDAC Inhibition Assays: This example describes in vitro inhibition properties of exemplary HDAC11 inhibitors for various HDACs. HDAC inhibition assays were performed using an electrophoretic mobility shift assay at Nanosyn, Inc. (Santa Clara, Calif.). Full length human recombinant HDAC proteins were expressed in the baculoviral system and purified by affinity chromatography. A human recombinant HDAC3 was co-expressed with nuclear receptor corepressor (Ncor2). The following peptide substrates were used: FAM-RHKK(Ac)-NH2 for HDAC3, HDAC6 and HDAC8; FITC-H3K27(Ac)-NH2 for HDAC1, HDAC2 and HDAC10; FAM-RHKK(tri-fluor-Ac)-NH2 for HDAC4, HDAC5, HDAC7, HDAC9 and HDAC11. Reactions consisting of compound, enzyme, and substrate were performed in reaction buffer (comprised of 100 mM HEPES, pH7.5, 25 mM KCl, 0.1% bovine serum albumin, 0.01% Triton X-100) at 25° C. and quenched by the addition of termination buffer (100 mM HEPES, pH7.5, 0.01% Triton X-100, 0.05% SDS). The fluorescence intensity of the electrophoretically separated de-acetylated product and substrate peptide were measured and analyzed using the LabChip® 3000 microfluidic electrophoresis instrument (Perkin Elmer/Caliper Life Sciences). The IC50 values of inhibitors were determined by fitting the %-inhibition curves with 4 parameter dose-response model using XLfit 4 software (IDBS).

The source of these data is ChEMBL document CHEMBL5727423, “Methods using HDAC11 inhibitors” (2019).

One may read the IC50 as the concentration that gives 50% inhibition.

Some results are limits rather than exact numbers.

Take `N#Cc1cc2nc(Nc3cccc(C(=O)NO)c3)[nH]c2cc1C(F)(F)F`: the concentration for half-maximal inhibition (IC50) is less than 0.5 µM.
